According to US12404289B2 (Gilead Sciences, Inc., priority 2020, dated 2025):
Read-outs that look alike come from different tables or passages of the source.

Assays:
Assay type in all cases: cell-based
[1] = CC50 assay (cytopathology in HEp-2 cells); conditions: human, HEp-2 cells, 4 days, CellTiter-Glo; Table 1; read-out: RSV CC50
In short: (§1)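 HEp-2 cells (3×10^3/well) received three-fold compound dilutions and were incubated 4 days at 37 °C. Viability was read by CellTiter-Glo luminescence, normalised to untreated (100%) and 5 µM puromycin (0%) controls. CC50 is the concentration reducing viability by 50%, from non-linear regression.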

[2] = test system: Respiratory syncytial virus (RSV) strain A2; test: Hep-2 RSV2 384-well assay (EC50-HEP2-384); conditions: HEp-2 cells, RSV A2, MOI=4, 4 days, Table 1
[3] = test system: Recombinant respiratory syncytial virus expressing the firefly luciferase protein (RSV-Fluc); test: microbe, parasite or virus in culture; conditions: Table 4
[4] = test system: Respiratory syncytial virus (RSV) strain A2; test: RSV antiviral assay (HEp-2, 96 well); conditions: Table 1
[5] = test system: Respiratory syncytial virus recombinant with luciferase (RSV-Luc5); test: microbe, parasite or virus in culture; conditions: human respiratory syncytial virus, HEp-2, 72 h, read-out: EC50 RSVFluc-Hep2 384, HEp-2 cells, RSV-Luc5, MOI=0.5, 3 days, 384 well, One-Glo; Table 1
SARS-CoV-2 = SARS-CoV-2 antiviral assay (A549-hACE2, Nano luciferase); conditions: A549-hACE2 cells, SARS-CoV2-Nano, MOI 0.025, 48 h
HEp-2 cells = test: CC50 assay (cytopathology in HEp-2 cells); conditions: HEp-2 cells, 4 days, CellTiter-Glo; Table 1; read-out: RSV CC50
In short: as §1

[6] = read-out: EC50 RSVFluc NHBE 96, NHBE cells, RSV-Fluc, MOI of 0.1, three days, 96 well
[7] = human respiratory syncytial virus, HEp-2, 96 h, read-out: EC50-RSV-HEP-2-96, HEp-2 cells, RSV A2, MOI=4, 4 days, 96 well, CellTiter-Glo
[8] = Severe acute respiratory syndrome coronavirus 2, 48 h, Table 1, read-out: SARS-CoV-2 EC50
[9] = Severe acute respiratory syndrome coronavirus 2, 48 h, Table 4, read-out: EC50 SARS CoV2
[10] = human respiratory syncytial virus, HEp-2, 96 h
[11] = human respiratory syncytial virus, NHBE, 72 h, read-out: EC50 RSVFluc NHBE 96, NHBE cells, RSV-Fluc, MOI of 0.1, three days, 96 well

Compound	CC50 at 4 days [1]	EC50 [2]	EC50 [3, 6]	EC50 [4, 7]	EC50 [5]	EC50 (SARS-CoV-2; [8])	EC50 (SARS-CoV-2; [9])	EC50 [2, 10]	EC50 [3, 11]	EC50 (SARS-CoV-2; Table 4, read-out: EC50 SARS CoV2)	CC50 (HEp-2 cells)	EC50 ([4]; read-out: EC50-RSV-HEP-2-96, HEp-2 cells, RSV A2, MOI=4, 4 days, 96 well, CellTiter-Glo)
CC(C)C(=O)O[C@H]1[C@@H](OC(=O)C(C)C)[C@](C#N)(c2ccc3c(N)ncnn23)O[C@@H]1COP(=O)(N[C@@H](C)C(=O)OC1CCC1)Oc1ccccc1 (stereo partly drawn) [Example 21, (2R,3R,4R,5R)-2-(4-Aminopyrrolo[2,1-f][1,2,4]triazin-7-yl)-2-cyano-5-((((((S)-1-cyclobutoxy-1-oxopropan-2-yl)amino)(phenoxy)phosphoryl)oxy)methyl) tetrahydrofuran-3,4-diyl bis(2-methylpropanoate)]	3110 nM	58.8 nM	5.36 nM	19.8 nM	29.4 nM	123 nM	234 nM	–	–	–	–	–
C[C@H](NP(=O)(OC[C@H]1O[C@@](C#N)(c2ccc3c(N)ncnn23)[C@H](O)[C@@H]1O)Oc1ccc(C(C)(C)C)cc1)C(=O)OC1CC2(CCC2)C1 (stereo partly drawn) [Example 29, Spiro[3.3]heptan-2-yl (2S)-2-[[[(2R,3S,4R,5R)-5-(4-aminopyrrolo[2,1-f][1,2,4]triazin-7-yl)-5-cyano-3,4-dihydroxy-tetrahydrofuran-2-yl]methoxy-(4-tert-butylphenoxy)phosphoryl]amino]propanoate]	2650 nM	–	–	10.7 nM	36.9 nM	65.1 nM	–	62.2 nM	3.93 nM	123 nM	–	–
CCC(CC)COC(=O)[C@H](C)NP(=O)(OC[C@H]1O[C@@](C#N)(c2ccc3c(N)ncnn23)[C@H](O)[C@@H]1O)Oc1ccc(C(C)(C)C)cc1 (mixture of isomers) [Example 13, 2-ethylbutyl (2S)-2-[[[(2R,5R)-5-(4-aminopyrrolo[2,1-f][1,2,4]triazin-7-yl)-5-cyano-3,4-dihydroxy-tetrahydrofuran-2-yl]methoxy-(4-tert-butylphenoxy)phosphoryl]amino]propanoate]	3800 nM	–	–	34.5 nM	20.1 nM	88.9 nM	319 nM	58.8 nM	2.92 nM	–	–	–
CC(=O)O[C@H]1[C@@H](OC(C)=O)[C@](C#N)(c2ccc3c(N)ncnn23)O[C@@H]1COP(=O)(N[C@@H](C)C(=O)OC1CC2(CCC2)C1)Oc1ccc(C(C)(C)C)cc1 (stereo partly drawn) [Example 30, Spiro[3.3]heptan-2-yl (2S)-2-[[(4-tert-butylphenoxy)-[[(2R,3R,4R,5R)-3,4-diacetoxy-5-(4-aminopyrrolo[2,1-f][1,2,4]triazin-7-yl)-5-cyano-tetrahydrofuran-2-yl]methoxy]phosphoryl]amino]propanoate]	2310 nM	–	4.49 nM	7.3 nM	27.1 nM	–	202 nM	39.7 nM	–	–	–	–
CCC(=O)O[C@H]1[C@@H](OC(=O)CC)[C@](C#N)(c2ccc3c(N)ncnn23)O[C@@H]1CO[P@@](=O)(N[C@@H](C)C(=O)OCC(CC)CC)Oc1ccccc1 [Example 3, (2R,3R,4R,5R)-2-(4-aminopyrrolo[2,1-f][1,2,4]triazin-7-yl)-2-cyano-5-((((S)—(((S)-1-(2-ethylbutoxy)-1-oxopropan-2-yl)amino)(phenoxy)phosphoryl)oxy)methyl) tetrahydrofuran-3,4-diyl Dipropionate]	5820 nM	–	–	44.1 nM	18.3 nM	113 nM	129 nM	–	5.55 nM	–	–	–
CCC(CC)COC(=O)[C@H](C)N[P@](=O)(OC[C@H]1O[C@@](C#N)(c2ccc3c(=N)n(COP(=O)(O)O)cnn23)[C@H](O)[C@@H]1O)Oc1ccccc1 [Example 28, 2-Ethylbutyl ((S)-(((2R,3S,4R,5R)-5-cyano-3,4-dihydroxy-5-(4-imino-3-((phosphonooxy)methyl)-3,4-dihydropyrrolo[2,1-f][1,2,4]triazin-7-yl)tetrahydrofuran-2-yl)methoxy)(phenoxy)phosphoryl)-L-alaninate]	7450 nM	–	–	31 nM	21.5 nM	–	1620 nM	–	35 nM	–	–	–
CCC(CC)COC(=O)[C@H](C)NP(=O)(OC[C@H]1O[C@@](C#N)(c2ccc3c(N)ncnn23)[C@H](O)[C@@H]1O)Oc1cc(C)ccc1C(C)C (single isomer, unassigned) [Example 26a]	–	–	–	1160 nM	–	–	–	–	–	–	> 45000 nM	–
CCC(CC)COC(=O)[C@H](C)NP(=O)(OC[C@H]1O[C@@](C#N)(c2ccc3c(N)ncnn23)[C@H](O)[C@@H]1O)Oc1cc(C)ccc1C(C)C (single isomer, unassigned) [Example 26b]	–	–	–	–	–	–	–	–	–	–	2400 nM	603 nM
